Data from publication PMC7472048 (Viruses, 2020).
pEC50: −log10 of the molar value.

Tests used:
rLCMV/ZsG = assay: microbe, parasite or virus in culture; assay type: cell-based, lymphocytic choriomeningitis virus (LCMV); conditions: Mammarenavirus choriomeningitidis, A549, 48 h, read-out: rLCMV (A549 cell) EC50
[1] = test system: IFNB and ISG mRNA expression; assay type: cell-based, Homo sapiens
r3Can = assay: organism not typed; assay type: cell-based, Junín virus (JUNV) Candid#1 strain; conditions: Vero, read-out: r3Can (Vero cell) EC50
rLASV/GFP = assay type: cell-based, Lassa virus (LASV)
rLASV = assay: microbe, parasite or virus in culture; assay type: cell-based, Lassa virus (LASV); conditions: Mammarenavirus lassaense, A549, read-out: rLASV (A549 cell) EC50
in vitro [2] = conditions: African green monkey (Chlorocebus aethiops)
in vitro [3] = conditions: human
r3Can/GFP = assay type: cell-based, Junín virus (JUNV)
LCMV CL-13 = test system: LCMV CL-13; set-up: species or system C57BL/6 mice; conditions: mouse, in vivo, 150 mg/kg/day
LASV Z-mediated budding = assay type: cell-based, Lassa virus (LASV)
rCL-13/ZsG = assay type: cell-based, lymphocytic choriomeningitis virus (LCMV)
influenza A virus = conditions: mouse, in vivo; cited from earlier work

Row | Structure (SMILES) | pEC50 (rLCMV/ZsG) | mRNA levels of IFNB and ISGs in LCMV-infected cells [1] | ISG15 and IFIT1 expression in non-infected A549 cells ([1]; 5 µM, 48 h) | expression of IFNB in non-infected A549 cells ([1]; 5 µM, 48 h) | pEC50 (r3Can) | rLASV/GFP propagation (rLASV/GFP) | pEC50 (rLASV) | CC50 (in vitro [2]) [nM] | CC50 (in vitro [3]) [nM] | r3Can/GFP propagation (r3Can/GFP) | body weight loss and recovery versus vehicle control (LCMV CL-13) | viral load (serum virus titers) (LCMV CL-13) | Z budding efficiency, ratio ZVLP:(ZVLP+ZWCL) (LASV Z-mediated budding) | Cmp 4-induced antiviral effect with exogenous uridine (rCL-13/ZsG) | survival (influenza A virus)
1 | Cc1c(-c2ccc(-c3ccccc3F)cc2)nc2ccc(F)cc2c1C(=O)O [Brequinar] | 7.39 | significantly decreased | moderately upregulated | Neither Cmp 1 nor brequinar treatment significantly affected | 7.40 | strongly inhibited | 7.20 | 47200 | 79000 | strongly inhibited | – | – | – | – | –
2 | COc1cccc(-c2ccc(NC(=O)C3=C(C(=O)O)CCC3)c(F)c2)c1 [Cmp 4, vidofludimus calcium] | 5.89 | – | – | – | 5.77 | – | 5.52 | 5920 | 54400 | – | less body weight loss and faster recovery | did not cause a significant reduction | very modest, but statistically significant, effect | reverted | –
3 | CCOc1ccc(-c2cc(C(=O)O)c3cc(Br)ccc3n2)cc1 [FA-613] | – | – | – | – | – | – | – | – | – | – | – | – | – | – | increased survival
